Key:
JAK-2 enzyme = JAK-2 enzyme (Homo sapiens, UniProt O60674); assay: JAK2 inhibition assay (33P incorporation into poly(Glu)4Tyr); format: biochemical; details: 15 μM poly(Glu)4Tyr, 12 μM ATP
Experimental: (§1) Compounds were screened for their ability to inhibit JAK3 using the assay shown below. Reactions were carried out in a kinase buffer containing 100 mM HEPES (pH 7.4), 1 mM DTT, 10 mM MgCl2, 25 mM NaCl, and 0.01% BSA. Substrate concentrations in the assay were 5 μM ATP (200 uCi/μmole ATP) and 1 μM poly(Glu)4Tyr. Reactions were carried out at 25° C. and 1 nM JAK3.
(§2) To each well of a 96 well polycarbonate plate was added 1.5 μl of a candidate JAK3 inhibitor along with 50 μl of kinase buffer containing 2 μM poly(Glu)4Tyr and 10 μM ATP. This was then mixed and 50 μl of kinase buffer containing 2 nM JAK3 enzyme was added to start the reaction. After 20 minutes at room temperature (25° C.), the reaction was stopped with 50 μl of 20% trichloroacetic acid (TCA) that also contained 0.4 mM ATP. The entire contents of each well were then transferred to a 96 well glass fiber filter plate using a TomTek Cell Harvester. After washing, 60 μl of scintillation fluid was added and ^33P incorporation detected on a Perkin Elmer TopCount.
The assays were as described above in Example 36 except that JAK-2 enzyme was used, the final poly(Glu)4Tyr concentration was 15 μM, and final ATP concentration was 12 μM.

JAK3 = target: T1, JAK3 (Homo sapiens, UniProt P52333); assay: JAK3 inhibition assay (33P incorporation into poly(Glu)4Tyr); format: biochemical; details: 1 nM JAK3; 1 μM poly(Glu)4Tyr, 5 μM ATP, 25° C.; read-out: JAK3 enzyme inhibition (Ki)
T1 sequence (P52333 1-1124): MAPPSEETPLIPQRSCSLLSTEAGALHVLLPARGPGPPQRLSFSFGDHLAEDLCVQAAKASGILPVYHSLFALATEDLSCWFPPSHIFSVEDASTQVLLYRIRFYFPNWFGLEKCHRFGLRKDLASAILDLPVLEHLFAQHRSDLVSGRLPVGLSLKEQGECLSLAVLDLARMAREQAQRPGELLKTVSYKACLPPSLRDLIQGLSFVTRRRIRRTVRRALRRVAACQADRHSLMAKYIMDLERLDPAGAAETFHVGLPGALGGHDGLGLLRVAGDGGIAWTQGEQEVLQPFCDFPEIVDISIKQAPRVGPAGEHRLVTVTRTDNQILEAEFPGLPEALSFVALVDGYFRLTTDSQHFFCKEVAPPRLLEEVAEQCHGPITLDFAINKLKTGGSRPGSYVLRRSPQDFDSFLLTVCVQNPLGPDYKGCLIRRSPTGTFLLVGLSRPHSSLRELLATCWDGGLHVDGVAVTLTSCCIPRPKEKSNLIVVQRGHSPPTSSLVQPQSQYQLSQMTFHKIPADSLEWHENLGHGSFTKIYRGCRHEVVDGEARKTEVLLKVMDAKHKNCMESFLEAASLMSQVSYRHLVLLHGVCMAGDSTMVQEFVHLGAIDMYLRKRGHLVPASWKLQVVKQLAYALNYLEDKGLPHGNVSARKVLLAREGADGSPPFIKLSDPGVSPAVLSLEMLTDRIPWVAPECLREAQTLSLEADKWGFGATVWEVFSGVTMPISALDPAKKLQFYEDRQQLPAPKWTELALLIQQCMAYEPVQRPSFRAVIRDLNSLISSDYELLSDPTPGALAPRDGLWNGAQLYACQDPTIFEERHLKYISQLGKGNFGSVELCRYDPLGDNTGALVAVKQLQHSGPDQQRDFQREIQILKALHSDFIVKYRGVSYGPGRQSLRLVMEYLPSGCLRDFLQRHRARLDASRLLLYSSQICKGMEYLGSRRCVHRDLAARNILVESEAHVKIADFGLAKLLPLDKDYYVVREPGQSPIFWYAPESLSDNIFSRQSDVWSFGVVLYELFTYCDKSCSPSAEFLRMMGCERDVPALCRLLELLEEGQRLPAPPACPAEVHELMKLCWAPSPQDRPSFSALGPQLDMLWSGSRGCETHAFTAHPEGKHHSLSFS
Experimental: as §1, §2

JAK-2 enzyme, sequence (O60674 whole entry): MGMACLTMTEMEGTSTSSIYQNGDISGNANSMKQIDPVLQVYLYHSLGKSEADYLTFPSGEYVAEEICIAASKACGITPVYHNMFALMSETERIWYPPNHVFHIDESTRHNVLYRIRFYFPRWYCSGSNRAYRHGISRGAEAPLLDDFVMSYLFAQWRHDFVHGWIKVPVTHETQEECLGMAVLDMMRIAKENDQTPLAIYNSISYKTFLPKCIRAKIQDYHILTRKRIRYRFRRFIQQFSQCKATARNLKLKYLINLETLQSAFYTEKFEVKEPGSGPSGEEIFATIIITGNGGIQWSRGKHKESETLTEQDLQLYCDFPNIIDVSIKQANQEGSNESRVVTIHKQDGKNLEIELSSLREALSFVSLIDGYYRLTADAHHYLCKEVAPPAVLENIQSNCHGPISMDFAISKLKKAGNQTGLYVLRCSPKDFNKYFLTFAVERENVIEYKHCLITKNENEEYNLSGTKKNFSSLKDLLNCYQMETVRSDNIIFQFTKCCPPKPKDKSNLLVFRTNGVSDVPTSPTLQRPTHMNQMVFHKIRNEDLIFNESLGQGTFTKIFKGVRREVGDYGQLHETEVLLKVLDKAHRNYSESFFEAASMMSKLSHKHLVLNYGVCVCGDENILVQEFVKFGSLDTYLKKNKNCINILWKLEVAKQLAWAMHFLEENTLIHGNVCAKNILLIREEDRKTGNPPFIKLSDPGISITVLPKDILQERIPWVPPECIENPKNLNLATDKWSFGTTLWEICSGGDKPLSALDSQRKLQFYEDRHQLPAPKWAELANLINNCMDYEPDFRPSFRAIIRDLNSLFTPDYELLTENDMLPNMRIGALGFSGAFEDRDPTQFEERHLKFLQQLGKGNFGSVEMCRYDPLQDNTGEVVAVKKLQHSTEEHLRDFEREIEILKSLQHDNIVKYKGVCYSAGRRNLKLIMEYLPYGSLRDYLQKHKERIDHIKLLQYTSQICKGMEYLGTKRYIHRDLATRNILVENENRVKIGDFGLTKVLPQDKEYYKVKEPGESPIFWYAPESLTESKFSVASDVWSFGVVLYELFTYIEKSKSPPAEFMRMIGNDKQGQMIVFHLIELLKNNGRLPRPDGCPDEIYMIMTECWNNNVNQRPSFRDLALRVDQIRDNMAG

Ki (JAK-2 enzyme): < 100 nM
Ki (JAK3): 100 to 500 nM
Structure (SMILES): CN(CC#N)C(=O)c1cc(-c2ncnc3[nH]ccc23)cn1C [Compound 236]
